The subject of the assay is Mycobacterium tuberculosis variant bovis BCG. Put plainly: Antimycobacterial activity against Mycobacterium bovis BCG ATCC 35734 after 5 days by broth dilution method. Format: functional. Particulars: ATCC 35734, 120 h. Background: Dilution methods test growth across graded concentrations, often in twofold steps.

Values after ≈ are worked out from the molar mass of the structure shown.

Usually MIC50 stands for the lowest concentration that inhibits either 50% of growth or 50% of the strains tested, depending on the study. Lower therefore signals higher susceptibility. One may read the MIC90 as the lowest concentration that inhibits either 90% of growth or 90% of the strains tested, depending on the study. A higher MIC90 goes with weaker potency.

Take `CCCCCCCCn1ccc2cccc(OCCCN3CCCCC3)c21`: the MIC50 is 5 µM (≈ 1.85 µg/mL) and the MIC90 worked out at 13 µM (≈ 4.82 µg/mL).
For `COc1ccc(CCCn2cc(CN3CCCCC3)c3ccc(OC)cc32)cc1` the same measures were 18 µM (≈ 7.07 µg/mL) and 39 µM (≈ 15.3 µg/mL).
For the compound `CCCCCCCCn1cc(CN2CCC3(CC2)OCCO3)c2ccc(OCc3ccccc3)cc21`, the MIC50 stood at 4 µM (≈ 1.96 µg/mL) and the MIC90 is 5.5 µM (≈ 2.7 µg/mL).
The compound `COc1ccc2c(CN3CCC4(CC3)OCCO4)cn(CCCCc3ccccc3)c2c1` came in with an MIC50 of 4.9 µM (≈ 2.13 µg/mL) and an MIC90 of 11.5 µM (≈ 5 µg/mL).
For `CCCCCCCCn1cc(CN2CCC(=O)CC2)c2ccc(OC)cc21` the same measures were 17 µM (≈ 6.3 µg/mL) and 24 µM (≈ 8.89 µg/mL).
`CCCCCCCCn1cc(CNCC2CCC3(CCCC3)O2)c2ccc(OC)cc21` (configuration not stated) showed an MIC50 of 1.8 µM (≈ 0.768 µg/mL) and an MIC90 of 4.6 µM (≈ 1.96 µg/mL).
Consider `CCCCCCCCn1cc(CN2CCC3(CC2)OC(C)C(C)O3)c2ccc(OC)cc21` (configuration not stated), for which the MIC50 turned out to be 0.7 µM (≈ 0.31 µg/mL) and the MIC90 was determined as 1.6 µM (≈ 0.708 µg/mL).
The corresponding values for `COc1ccc2c(CN3CCC4(CC3)OCCCO4)cn(CCCCOc3ccccc3)c2c1` are 11 µM (≈ 5.11 µg/mL) and 25 µM (≈ 11.6 µg/mL).
The compound `CCCCCCCCn1cc(CN2CCC3(CC2)OCCCO3)c2cc([N+](=O)[O-])ccc21` showed an MIC50 of 7 µM (≈ 3.11 µg/mL) and an MIC90 of 18 µM (≈ 7.98 µg/mL).
For `COc1ccc2c(CN3CCC4(CC3)OCCO4)cn(CCCc3ccccc3)c2c1` the same measures were 6 µM (≈ 2.52 µg/mL) and 18 µM (≈ 7.57 µg/mL).
The compound `COc1ccc2c(CN3CCC4(CC3)OCCCO4)cn(CCCOc3ccc(C)cc3)c2c1` showed an MIC50 of 1.3 µM (≈ 0.604 µg/mL) and an MIC90 of 2.6 µM (≈ 1.21 µg/mL).
The corresponding values for `COc1ccc2c(CN3CCC4(CC3)OCCO4)cn(CCCOc3ccc(C)cc3)c2c1` are 4.8 µM (≈ 2.16 µg/mL) and 11 µM (≈ 4.96 µg/mL).
`COc1ccc2c(CN3CCC4(CC3)OCCCO4)cn(CCCOCc3ccccc3)c2c1` gave an MIC50 of 2 µM (≈ 0.929 µg/mL) and an MIC90 of 6 µM (≈ 2.79 µg/mL).
The corresponding values for `COc1ccc2c(CN3CCC4(CC3)OCCCO4)cn(CCCOc3ccccc3)c2c1` are 1.3 µM (≈ 0.586 µg/mL) and 3.1 µM (≈ 1.4 µg/mL).
For `CCCCCCCCn1cc(CN2CCC3(CC2)OCCCO3)c2ccc(OCc3ccccc3)cc21` the same measures were 2.2 µM (≈ 1.11 µg/mL) and 3.1 µM (≈ 1.56 µg/mL).
In turn, `CCCCCCCCn1cc(CN2CCC3(C=Cc4ccccc43)CC2)c2ccc(OC)cc21` gave an MIC50 of 1 µM (≈ 0.457 µg/mL) and an MIC90 of 2 µM (≈ 0.913 µg/mL).
The corresponding values for `CCCCCCCCn1ccc2ccc(OCCCN3CCC4(CC3)OCCCO4)cc21` are 5.6 µM (≈ 2.48 µg/mL) and 28 µM (≈ 12.4 µg/mL).
The corresponding values for `CCCCCCCCn1ccc2cc(OCCCN3CCCCC3)ccc21` are 13 µM (≈ 4.82 µg/mL) and 40 µM (≈ 14.8 µg/mL).
In turn, `COc1ccc(CCCn2cc(CN3CCC4(CC3)OCCO4)c3ccc(OC)cc32)cc1` gave an MIC50 of 7.4 µM (≈ 3.33 µg/mL) and an MIC90 of 17 µM (≈ 7.66 µg/mL).
The compound `COc1ccc2c(CN3CCCCC3)cn(CCCc3ccccc3)c2c1` showed an MIC50 of 36 µM (≈ 13.1 µg/mL) and an MIC90 of over 50 µM.
For `CCCCCCCCn1cc(CN2CCC3(CCc4ccccc43)CC2)c2ccc(OC)cc21` the same measures were 1 µM (≈ 0.459 µg/mL) and 2 µM (≈ 0.917 µg/mL).
`CCCCCCCCn1cc(CN2CC3C(C2)C3(F)F)c2ccc(OC)cc21` (configuration not stated): the MIC50 is 21 µM (≈ 8.2 µg/mL) and the MIC90 worked out at 50 µM (≈ 19.5 µg/mL).
For `CCCCCCCCn1ccc2ccc(OCCCN3CCCCCC3)cc21` the same measures were 3.9 µM (≈ 1.5 µg/mL) and 12 µM (≈ 4.62 µg/mL).
For `CCCCCCCCn1cc(CN2CC3COCC(C2)O3)c2ccc(OC)cc21` the same measures were 17 µM (≈ 6.81 µg/mL) and 30 µM (≈ 12 µg/mL).
As to `CCCCCCCCn1cc(CN2CC(n3cccn3)C2)c2ccc(OC)cc21`, the MIC50 is 6 µM (≈ 2.37 µg/mL) and the MIC90 stood at 15 µM (≈ 5.92 µg/mL).
With `COc1ccc2c(CN3CCC4(CC3)OCCCO4)cn(CCCOc3ccc(C)c(C)c3)c2c1`, the MIC50 was 1.7 µM (≈ 0.814 µg/mL) and the MIC90 turned out to be 2.7 µM (≈ 1.29 µg/mL).

For the origin of these results see ChEMBL document CHEMBL4145615, “Indolyl Azaspiroketal Mannich Bases Are Potent Antimycobacterial Agents with Selective Membrane Permeabilizing Effects and in Vivo Activity” (J Med Chem, 2018).
